The values below are quoted from earlier work in patent US7342124B2, “Synthetic techniques and intermediates for polyhydroxy dienyl lactones and mimics thereof” (The Trustees Of The University Of Pennsylvania, priority 2003, dated 2008).

For series [1], the system named is two-way mixed-lymphocyte reaction. The conditions noted are these: in vitro.
The test system of a further series is murine splenocytes. The conditions noted are these: in vitro.
Series [2] concerns graft-vs.-host splenomegaly response. The conditions noted are these: induced by injection of parental splenocytes into F1 recipient mice.
The subject of series [3] is cell development (M phase). The conditions noted are these: by binding and stabilizing mitotic spindle microtubules.
Series [4] has as its system mitotic spindle microtubules. The conditions noted are these: compared with taxol.

As for `C=C/C=C\[C@H](C)[C@H](OC(N)=O)[C@@H](C)[C@H](O)[C@@H](C)C/C(C)=C\[C@H](C)[C@@H](O)[C@@H](C)/C=C\[C@@H](O)C[C@@H]1OC(=O)[C@H](C)[C@@H](O)[C@H]1C` [(+)-discodermolide], the “suppression of two-way mixed-lymphocyte reaction” value in series [1] is on record as “suppresses”. Moreover, in the series with murine splenocytes (at suppression of mixed-lymphocyte reaction and concanavalin A-induced mitogenesis), the associated cytotoxicity entry is recorded as “no associated cytotoxicity”. Moreover, the “suppression of concanavalin A-induced mitogenesis” value with murine splenocytes (murine splenocytes) is on record as “suppresses”. The “suppression of graft-vs.-host splenomegaly response, relative potency” value in series [2] is “potency intermediate between those of cyclosporin A and FK506”. Besides, the cell cycle arrest entry in series [3] is recorded as “arrests cell development at the M phase”. The “microtubule binding affinity relative to taxol” value in series [4] was “much higher”.
